This note sets out measurements from ChEMBL document CHEMBL3351292, “Structure-Based Design and Synthesis of Potent Cyclic Peptides Inhibiting the YAP-TEAD Protein-Protein Interaction” (ACS Med Chem Lett, 2014).

pIC50, pKd: −log10 of the molar value. Where a SMILES comes first, the peptide text is derived from it. Bridges are numbered along the chain shown (N, C = ends). [ ]: non-standard residue; d: D form. hCys = N[C@@H](CCS)C(=O)O

Assay [1] has as its target T1, Transcriptional coactivator YAP1/Transcriptional enhancer factor TEF-1 (Homo sapiens, UniProt P28347). Put plainly: Inhibition of YAP/ GST-TEAD1 (unknown origin) interaction by surface plasmon resonance assay. The format is protein assay.
The target in assay [2] is T1, Transcriptional coactivator YAP1/Transcriptional enhancer factor TEF-1. Put plainly: Inhibition of YAP/ GST-TEAD1 interaction in human Bel-7404 cells […]. The format is cell-based, Bel7404.
For assay [3], the target named is Transcriptional coactivator YAP1/Transcriptional enhancer factor TEF-1 (Homo sapiens) (UniProt P46937+P28347). Description: Inhibition of YAP/ GST-TEAD1 (unknown origin) interaction at 50 uM by surface plasmon resonance assay. It counts as protein assay. (In general: In SPR one partner is held on a chip, and binding of the other changes the refractive index at the surface.)
Chain of Transcriptional coactivator YAP1/Transcriptional enhancer factor TEF-1 (Homo sapiens) (P28347 whole entry, looked up): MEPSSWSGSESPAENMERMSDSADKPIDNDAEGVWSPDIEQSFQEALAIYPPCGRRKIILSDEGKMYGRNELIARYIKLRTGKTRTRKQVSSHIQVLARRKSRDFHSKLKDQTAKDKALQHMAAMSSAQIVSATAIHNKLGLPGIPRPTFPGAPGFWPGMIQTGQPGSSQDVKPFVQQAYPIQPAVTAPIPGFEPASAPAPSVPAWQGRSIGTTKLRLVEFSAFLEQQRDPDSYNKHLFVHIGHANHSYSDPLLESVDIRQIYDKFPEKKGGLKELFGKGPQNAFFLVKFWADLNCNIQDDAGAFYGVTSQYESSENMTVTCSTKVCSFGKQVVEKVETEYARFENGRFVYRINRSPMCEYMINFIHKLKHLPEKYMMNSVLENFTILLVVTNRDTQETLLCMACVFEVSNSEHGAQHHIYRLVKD
Chain of Transcriptional coactivator YAP1/Transcriptional enhancer factor TEF-1 (Homo sapiens) (P46937 whole entry, looked up): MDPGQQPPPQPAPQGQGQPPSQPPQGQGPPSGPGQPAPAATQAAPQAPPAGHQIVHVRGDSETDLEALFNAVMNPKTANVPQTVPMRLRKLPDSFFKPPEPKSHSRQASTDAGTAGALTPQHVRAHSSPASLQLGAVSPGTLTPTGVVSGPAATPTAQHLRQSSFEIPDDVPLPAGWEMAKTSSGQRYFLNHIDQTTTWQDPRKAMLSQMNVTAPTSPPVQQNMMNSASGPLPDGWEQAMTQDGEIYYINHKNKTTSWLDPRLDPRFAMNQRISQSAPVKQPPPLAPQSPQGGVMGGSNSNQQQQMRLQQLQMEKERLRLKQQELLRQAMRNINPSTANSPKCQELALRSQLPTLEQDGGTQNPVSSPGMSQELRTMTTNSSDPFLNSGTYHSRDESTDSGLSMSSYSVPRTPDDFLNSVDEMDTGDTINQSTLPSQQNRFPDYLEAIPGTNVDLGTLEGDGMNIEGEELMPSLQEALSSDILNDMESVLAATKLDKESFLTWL

T1 sequence (P46937 whole entry): as the sequence (P46937 whole entry, looked up) above
T1 sequence (P28347 whole entry): as the sequence (P28347 whole entry, looked up) above

What is called pIC50 is −log10 of the IC50, conventionally taken in molar units. As for `CSCC[C@H](NC(=O)[C@@H]1CCCN1C(=O)[C@@H](NC(C)=O)C(C)C)C(=O)N[C@H]1CCSSC[C@@H](C(=O)N[C@@H](CCCCN)C(=O)N2CCC[C@H]2C(=O)N2CCC[C@H]2C(=O)N[C@@H](CCC(=O)O)C(N)=O)NC(=O)[C@H](Cc2ccccc2)NC(=O)[C@H](CO)NC(=O)[C@H](CC(=O)O)NC(=O)[C@@H]2CCCN2C(=O)[C@H](CC(C)C)NC(=O)[C@H](CCCCN)NC(=O)[C@H](CCCNC(=N)N)NC(=O)[C@H](CC(C)C)NC1=O`, the negative-log IC50 (pIC50) in assay [1] is 5.16.

With `CSCC[C@H](NC(=O)[C@@H]1CCCN1C(=O)[C@@H](NC(C)=O)C(C)C)C(=O)N[C@H]1CCSSC[C@@H](C(=O)N[C@@H](CCCCN)C(=O)N2CCC[C@H]2C(=O)N2CCC[C@H]2C(=O)N[C@@H](CCC(=O)O)C(N)=O)NC(=O)[C@H](Cc2ccccc2)NC(=O)[C@H](CO)NC(=O)[C@H](C)NC(=O)[C@@H]2CCCN2C(=O)[C@H](CC(C)C)NC(=O)[C@H](CCCCN)NC(=O)[C@H](CCCNC(=N)N)NC(=O)[C@H](CC(C)C)NC1=O`, in assay [1], the pIC50 is 5.82.

On to `CCCCCC[C@@H]1NC(=O)[C@H](CCCCN)NC(=O)[C@H](CCCNC(=N)N)NC(=O)[C@H](CC(C)C)NC(=O)[C@@H](NC(=O)[C@H](CCSC)NC(=O)[C@@H]2CCCN2C(=O)[C@@H](NC(C)=O)C(C)C)CCSSC[C@@H](C(=O)N[C@@H](CCCCN)C(=O)N2CCC[C@H]2C(=O)N2CCC[C@H]2C(=O)N[C@@H](CCC(=O)O)C(N)=O)NC(=O)[C@H](Cc2ccccc2)NC(=O)[C@H](CO)NC(=O)[C@H](C)NC(=O)[C@@H]2CCCN2C1=O`, for which the pIC50 in assay [1] was 6.43.

`CSCC[C@H](NC(=O)[C@@H]1CCCN1C(=O)[C@@H](NC(C)=O)C(C)C)C(=O)N[C@H]1CCSSC[C@@H](C(=O)N[C@@H](CCCCN)C(=O)N2CCC[C@H]2C(=O)N2CCC[C@H]2C(=O)N[C@@H](CCC(=O)O)C(N)=O)NC(=O)[C@H](Cc2ccccc2)NC(=O)[C@H](CO)NC(=O)[C@H](C)NC(=O)[C@@H]2CCCN2C(=O)[C@H](CCCC(C)C)NC(=O)[C@H](CCCCN)NC(=O)[C@H](CCCNC(=N)N)NC(=O)[C@H](CC(C)C)NC1=O`: the negative logarithm of the IC50 (pIC50) in assay [1] was 6.51.

Turning to `CCCC[C@H](NC(=O)[C@@H]1CCCN1C(=O)[C@@H](NC(C)=O)C(C)C)C(=O)N[C@H]1CCSSC[C@@H](C(=O)N[C@@H](CCCCN)C(=O)N2CCC[C@H]2C(=O)N2CCC[C@H]2C(=O)N[C@@H](CCC(=O)O)C(N)=O)NC(=O)[C@H](Cc2ccccc2)NC(=O)[C@H](CO)NC(=O)[C@H](C)NC(=O)[C@@H]2CCCN2C(=O)[C@H](CCCC)NC(=O)[C@H](CCCCN)NC(=O)[C@H](CCCNC(=N)N)NC(=O)[C@H](CC(C)C)NC1=O`, in assay [1], the pIC50 was 6.47.

With `CCCC[C@@H]1NC(=O)[C@H](CCCCN)NC(=O)[C@H](CCCNC(=N)N)NC(=O)[C@H](CC(C)C)NC(=O)[C@@H](NC(=O)[C@H](Cc2ccccc2)NC(=O)[C@@H]2CCCN2C(=O)[C@@H](NC(C)=O)C(C)C)CCSSC[C@@H](C(=O)N[C@@H](CCCCN)C(=O)N2CCC[C@H]2C(=O)N2CCC[C@H]2C(=O)N[C@@H](CCC(=O)O)C(N)=O)NC(=O)[C@H](Cc2ccccc2)NC(=O)[C@H](CO)NC(=O)[C@H](C)NC(=O)[C@@H]2CCCN2C1=O`, in assay [1], the negative logarithm of the IC50 (pIC50) is 6.46.

One may read the pKd as −log10 of the Kd, conventionally taken in molar units. Take `CCCC[C@@H]1NC(=O)[C@H](CCCCN)NC(=O)[C@H](CCCNC(=N)N)NC(=O)[C@H](CC(C)C)NC(=O)[C@@H](NC(=O)[C@H](Cc2cccc(Cl)c2)NC(=O)[C@@H]2CCCN2C(=O)[C@@H](NC(C)=O)C(C)C)CCSSC[C@@H](C(=O)N[C@@H](CCCCN)C(=O)N2CCC[C@H]2C(=O)N2CCC[C@H]2C(=O)N[C@@H](CCC(=O)O)C(N)=O)NC(=O)[C@H](Cc2ccccc2)NC(=O)[C@H](CO)NC(=O)[C@H](C)NC(=O)[C@@H]2CCCN2C1=O`: in assay [1], the pIC50 is 7.60. Moreover, the pKd in assay [2] was 7.82.

`CCCC[C@@H]1NC(=O)[C@H](CCCCN)NC(=O)[C@H](CCCNC(=N)N)NC(=O)[C@H](CC(C)C)NC(=O)[C@@H](NC(=O)[C@H](Cc2ccc(Cl)cc2)NC(=O)[C@@H]2CCCN2C(=O)[C@@H](NC(C)=O)C(C)C)CCSSC[C@@H](C(=O)N[C@@H](CCCCN)C(=O)N2CCC[C@H]2C(=O)N2CCC[C@H]2C(=O)N[C@@H](CCC(=O)O)C(N)=O)NC(=O)[C@H](Cc2ccccc2)NC(=O)[C@H](CO)NC(=O)[C@H](C)NC(=O)[C@@H]2CCCN2C1=O`: the pIC50 in assay [1] is 6.28.

For orientation: inhibition means the share of the control response that was lost under treatment. As for `CSCC[C@H](NC(=O)[C@@H]1CCCN1C(=O)[C@@H](NC(=O)[C@@H](NC(=O)[C@H](CCC(N)=O)NC(=O)[C@@H]1CCCN1C(C)=O)[C@@H](C)O)C(C)C)C(=O)N[C@@H](CCCNC(=N)N)C(=O)N[C@@H](CC(C)C)C(=O)N[C@@H](CCCNC(=N)N)C(=O)N[C@@H](CCCCN)C(=O)N[C@@H](CC(C)C)C(=O)N1CCC[C@H]1C(=O)N[C@@H](C)C(=O)N[C@@H](CO)C(=O)N[C@@H](Cc1ccccc1)C(=O)N[C@@H](Cc1ccccc1)C(=O)N[C@@H](CCCCN)C(=O)N1CCC[C@H]1C(=O)N1CCC[C@H]1C(=O)N[C@@H](CCC(=O)O)C(N)=O` (Ac-PQTVPMRLRKLPASFFKPPE-NH2), the pIC50 in assay [1] was 4.60. Also, in assay [3], the inhibition came to 83%.

`CSCC[C@H](NC(=O)[C@@H]1CCCN1C(=O)[C@@H](NC(=O)[C@@H](NC(=O)[C@H](CCC(N)=O)NC(=O)[C@@H]1CCCN1C(C)=O)[C@@H](C)O)C(C)C)C(=O)N[C@@H](CCCNC(=N)N)C(=O)N[C@@H](CC(C)C)C(=O)N[C@@H](CCCNC(=N)N)C(=O)N[C@@H](CCCCN)C(=O)N[C@@H](CC(C)C)C(=O)N1CCC[C@H]1C(=O)N[C@@H](CC(=O)O)C(=O)N[C@@H](CO)C(=O)N[C@@H](Cc1ccccc1)C(=O)N[C@@H](Cc1ccccc1)C(=O)N[C@@H](CCCCN)C(=O)N1CCC[C@H]1C(=O)N1CCC[C@H]1C(=O)N[C@@H](C)C(N)=O` (Ac-PQTVPMRLRKLPDSFFKPPA-NH2): the negative-log IC50 (pIC50) in assay [1] is 4.37. For the same compound, the inhibition in assay [3] was found to be 71%.

With `CSCC[C@H](NC(=O)[C@@H]1CCCN1C(=O)[C@@H](NC(C)=O)C(C)C)C(=O)N[C@H]1CSSC[C@@H](C(=O)N[C@@H](CCCCN)C(=O)N2CCC[C@H]2C(=O)N2CCC[C@H]2C(=O)N[C@@H](CCC(=O)O)C(N)=O)NC(=O)[C@H](Cc2ccccc2)NC(=O)[C@H](CO)NC(=O)[C@H](CC(=O)O)NC(=O)[C@@H]2CCCN2C(=O)[C@H](CC(C)C)NC(=O)[C@H](CCCCN)NC(=O)[C@H](CCCNC(=N)N)NC(=O)[C@H](CC(C)C)NC1=O` (Ac-VPMCLRKLPDSFCKPPE-NH2; disulfide 4-13), the pIC50 in assay [1] was less than 4.00.

For `CSCC[C@H](NC(=O)[C@@H]1CCCN1C(=O)[C@@H](NC(C)=O)C(C)C)C(=O)N[C@H]1CSSCC[C@@H](C(=O)N[C@@H](CCCCN)C(=O)N2CCC[C@H]2C(=O)N2CCC[C@H]2C(=O)N[C@@H](CCC(=O)O)C(N)=O)NC(=O)[C@H](Cc2ccccc2)NC(=O)[C@H](CO)NC(=O)[C@H](CC(=O)O)NC(=O)[C@@H]2CCCN2C(=O)[C@H](CC(C)C)NC(=O)[C@H](CCCCN)NC(=O)[C@H](CCCNC(=N)N)NC(=O)[C@H](CC(C)C)NC1=O` (Ac-VPMCLRKLPDSF[hCys]KPPE-NH2; disulfide 4-13), the pIC50 in assay [1] is 4.07.

With `CSCC[C@H](NC(=O)[C@@H]1CCCN1C(=O)[C@@H](NC(C)=O)C(C)C)C(=O)N[C@H]1CCSSCC[C@@H](C(=O)N[C@@H](CCCCN)C(=O)N2CCC[C@H]2C(=O)N2CCC[C@H]2C(=O)N[C@@H](CCC(=O)O)C(N)=O)NC(=O)[C@H](Cc2ccccc2)NC(=O)[C@H](CO)NC(=O)[C@H](CC(=O)O)NC(=O)[C@@H]2CCCN2C(=O)[C@H](CC(C)C)NC(=O)[C@H](CCCCN)NC(=O)[C@H](CCCNC(=N)N)NC(=O)[C@H](CC(C)C)NC1=O` (Ac-VPM[hCys]LRKLPDSF[hCys]KPPE-NH2; disulfide 4-13), the pIC50 in assay [1] was less than 4.00.
